Data: patent publication US20240158430A1, “NOVEL COMPOUND OR SALT THEREOF, AND ANTITUMOR ACTIVATOR CONTAINING SAME AS ACTIVE INGREDIENT” (AKITA UNIVERSITY, priority 2021, published 2024)
Like-named read-outs stand apart in the source and are kept apart here.

How the values were obtained:
[1] = tested on: gastric cancer cell line H-111-TC; test: Cell growth inhibitory activity, H-111-TC; format: cell-based; settings: Table 6
Method: (§1) The cell growth inhibitory activity against a colorectal cancer cell line HCT116 was measured. As an index of cell growth inhibitory activity, a concentration at which cell growth was inhibited by 50% as compared with a control (IC50) was used. The method is as follows. HCT116 was added to a 6-well plate by 5×10^4, compounds having various concentrations were added after 24 hours, and the number of cells was counted after 72 hours of culture. As the control, DMSO was used in an amount equal to the amount added in accordance with the addition concentration of the highest-concentration compound. The number of cells at each concentration relative to the control was expressed as a percentage. In Table 3, the turbidities of the compounds are also indicated.
The cell growth inhibitory activity (IC50) of each of curcumin, GO-Y199, and GO-Y206 against the colorectal cancer cell lines DLD-1 and HCT116 and the gastric cancer cell lines KATO III and H-111-TC was measured. The method is as described above. FIG. 8 indicates the results of cell growth inhibitory activity of these compounds against various cancer cell lines.

[2] = tested on: malignant melanoma cell line G361; test: Cell growth inhibitory activity, G361; format: cell-based; settings: Homo sapiens, G-361; Table 9
Method: [The source words this procedure for another cell line and reports this cell line under the same test.] as §1, with “percentage.” for “percentage. In Table 3, the turbidities of the compounds are also indicated.”
(§2) The method is as described above.

[3] = tested on: gastric cancer cell line GCIY; test: Cell growth inhibitory activity, GCIY; format: cell-based; settings: Homo sapiens, GCIY; Table 4; 72 hours
Method: [The source words this procedure for another cell line and reports this cell line under the same test.] as §1, with “percentage.” for “percentage. In Table 3, the turbidities of the compounds are also indicated.”
as §2

[4] = tested on: gastric cancer cell line SH-10-TC; test: Cell growth inhibitory activity, SH-10-TC; format: cell-based; settings: SH-10-TC; Table 4; 72 hours
Method: [The source words this procedure for another cell line and reports this cell line under the same test.] as §1, with “percentage.” for “percentage. In Table 3, the turbidities of the compounds are also indicated.”
as §2

[5] = tested on: cutaneous T-cell lymphoma cell line HUT78; test: Cell growth inhibitory activity, HUT78; format: cell-based; settings: Homo sapiens, HuT78; Table 10
Method: [The source words this procedure for another cell line and reports this cell line under the same test.] as §1, with “percentage.” for “percentage. In Table 3, the turbidities of the compounds are also indicated.”
as §2

[6] = tested on: malignant pleural mesothelioma cell line MSTO211H; test: Cell growth inhibitory activity, MSTO211H; format: cell-based; settings: Homo sapiens, MSTO-211H; Table 8
Method: as §1
(§3) GO-Y198, GO-Y199, and GO-Y200 against malignant pleural mesothelioma cell lines NCI-H226 and MSTO211H was measured. The method is as described above. For comparison, the IC50 of cisplatin (CDDP), a cytocidal anticancer agent, is also indicated.

[7] = tested on: colorectal cancer cell line HCT116; test: Cell growth inhibitory activity, HCT116; format: cell-based; settings: Homo sapiens
Method: as §1, with “percentage.” for “percentage. In Table 3, the turbidities of the compounds are also indicated.”
as §2
(§4) The cell growth inhibitory activity (IC50) of each of curcumin, GO-Y199, and GO-Y206 against the colorectal cancer cell lines DLD-1 and HCT116 and the gastric cancer cell lines KATO III and H-111-TC was measured. The method is as described above.

[8] = tested on: colorectal cancer cell line DLD-1; test: Cell growth inhibitory activity, DLD-1; format: cell-based; settings: Homo sapiens, DLD-1
Method: as §1, with “percentage.” for “percentage. In Table 3, the turbidities of the compounds are also indicated.”
as §2, §4

[9] = tested on: gastric cancer cell line KATO III; test: Cell growth inhibitory activity, KATO III; format: cell-based; settings: Homo sapiens, KATO III; Table 6; read-out: IC50 (μM) KATO III
Method: as §1, with “percentage.” for “percentage. In Table 3, the turbidities of the compounds are also indicated.”
as §2, §4

[10] = tested on: vascular endothelial cells HUVEC-R resistant to Ki8751; test: Angiogenesis inhibitory activity, HUVEC-R; format: cell-based; settings: Endothelial cell; Table 11; number of cells after 72 hours
Method: HUVEC-R was cultured in the presence of each compound using an EGMTM-2 Bullet Kit (Takara Bio Inc., Otsu, Japan), and the number of cells was measured after 72 hours. In addition, IC50 was determined from the results.

[11] = tested on: malignant pleural mesothelioma cell line NCI-H226; test: Cell growth inhibitory activity, NCI-H226; format: cell-based; settings: Homo sapiens, NCI-H226; Table 8
Method: as §1, §3

[12] = tested on: pancreatic cancer cell line ASPC-1; test: Cell growth inhibitory activity, ASPC-1; format: cell-based; settings: Homo sapiens, ASPC1; Table 7
Method: [The source words this procedure for another cell line and reports this cell line under the same test.] as §1, with “percentage.” for “percentage. In Table 3, the turbidities of the compounds are also indicated.”
as §2

[13] = tested on: cutaneous T-cell lymphoma cell line HH; test: Cell growth inhibitory activity, HH; format: cell-based; settings: T-cell; Table 10
Method: [The source words this procedure for another cell line and reports this cell line under the same test.] as §1, with “percentage.” for “percentage. In Table 3, the turbidities of the compounds are also indicated.”
as §2

Turbidity measurement = format: physicochemical
Method: The turbidity of various compounds was measured. The method is as follows. […] Curcumin was cloudy while GO-Y199 was clear. The solubility was measured with a turbidimeter (WZB-170 Portable Turbidimeter available from REX). The turbidity of the compound was corrected for concentration.
Subsequently, GO-Y206 and curcumin were adjusted to final concentrations of 1.25 μM and 5.00 μM, respectively, and their turbidities were measured.

[14] = tested on: pancreatic cancer cell line Panc-1; test: Cell growth inhibitory activity, Panc-1; format: cell-based; settings: Homo sapiens, PANC-1; Table 7
Method: [The source words this procedure for another cell line and reports this cell line under the same test.] as §1, with “percentage.” for “percentage. In Table 3, the turbidities of the compounds are also indicated.”
as §2

Compound: COc1cc(/C=C/C(=O)CC(=O)/C=C/c2ccc(O)c(OC)c2)ccc1O [curcumin, reference compound]
- IC50 [1]: > 50 µM
- IC50 [2]: 16.8 µM
- IC50 [3]: 8.66 µM
- IC50 [4]: 8.07 µM
- IC50 [5]: 9.01 µM
- IC50 [6]: 33.7 µM
- IC50 ([7]; HCT-116, read-out: IC50 HCT-116, Table 4, 72 hours): 16 µM
- IC50 ([7]; HCT-116, Table 3, HCT116, cell count after 72 hours of culture vs DMSO control, read-out: IC50): 16 µM
- IC50 ([7]; HCT-116, Table 6, read-out: IC50 (μM) HCT116): 7.08 µM
- IC50 ([8]; Table 4, 72 hours, read-out: IC50 DLD-1): 18.7 µM
- IC50 ([8]; Table 6, read-out: IC50 (μM) DLD-1): 44.8 µM
- IC50 [9]: 11 µM
- IC50 [10]: 11.9 µM
- IC50 [11]: 15.1 µM
- IC50 [12]: 18.5 µM
- IC50 [13]: 18.1 µM
- Turbidity/μm (Turbidity measurement; Table 1, average turbidity corrected for final concentration (1.7-170 μm, per compound)): 0.29 NTU/μM
- Relative Value (turbidity) (Turbidity measurement; Table 1, turbidity/μm relative to curcumin = 1): 1
- Turbidity (NTU) (Turbidity measurement; Table 2, final conc. 1.25 μM): 4.96 NTU
- Turbidity/μm (Turbidity measurement; Table 2, final conc. 1.25 μM): 3.968 NTU/μM
- Turbidity (NTU) (Turbidity measurement; Table 2, final conc. 5.0 μM): 29.0 NTU
- Turbidity/μm (Turbidity measurement; Table 2, final conc. 5.0 μM): 5.8 NTU/μM
- Relative Value (turbidity) (Turbidity measurement; Table 2, value in parentheses, relative to curcumin = 1.00): (1.00)
- Turbidity (Relative Value) (Turbidity measurement; Table 3, relative to curcumin = 1): 1
- appearance of solution (Turbidity measurement; final concentration 50 μM in distilled water or DMEM with 10% fetal bovine serum, from DMSO): cloudy
- IC50 [14]: 29.2 µM
